Molecular target: hTDO2 in human glioblastoma A172 cells (Homo sapiens (Human), UniProt P48775)
Experiment: Cellular assay for TDO2 activity determination in A172 cells
Type: cell-based
Conditions: overnight incubation, kynurenine absorbance at 480 nm
Procedure: The compounds of formula I inhibit the activity of human TDO2 in cells that constitutively express TDO2, such as A172 cells. A172 is a cell line derived from human brain glioblastoma cells. The cells are available from the American Type Culture Collection (ATCC®) as CRL-1620™.
The assay (adapted from Pilotte L et al., Proc Natl Acad Sci USA, 2012, 109(7), 2497-502) was performed in 96-well flat bottom plates seeded with human glioblastoma A172 cells, naturally expressing hTDO2 (prepared as described in Tilman et al., Mol Cancer, 2007, 17(6), 80), at a concentration of 1.25×10^4 cells/well in a final volume of 200 μL. To determine TDO, the cells were incubated overnight at 37° C. at 5% CO2 in IMDM (Invitrogen) supplemented with 2% FBS and 2% penicillin/streptomycin in the presence of the compounds of the present invention, at different concentrations.
The plates were then centrifuged 5 min at 1000 rpm, and 100 μL of the supernatant were collected in a conical plate, 30 μL of TCA 30% were added and a further centrifuged at 3000×g for 10 minutes. 100 μL of the supernatant were collected in a flat bottomed plate and 100 μL of 2% (w/v) 4-(dimethylamino)-benzaldehyde in acetic acid and incubated for 5 min at room temperature. Kynurenine concentrations were determined by measuring the absorbance at 480 nm. A standard curve was made with pure kynurenine. The TDO activity was measured as described above using ten serial concentrations of the compounds of the present invention. Data were fitted using the Prism™ software (GraphPad Software, Inc.) using standard parameters.

Sequence of hTDO2 in human glioblastoma A172 cells (P48775 whole entry): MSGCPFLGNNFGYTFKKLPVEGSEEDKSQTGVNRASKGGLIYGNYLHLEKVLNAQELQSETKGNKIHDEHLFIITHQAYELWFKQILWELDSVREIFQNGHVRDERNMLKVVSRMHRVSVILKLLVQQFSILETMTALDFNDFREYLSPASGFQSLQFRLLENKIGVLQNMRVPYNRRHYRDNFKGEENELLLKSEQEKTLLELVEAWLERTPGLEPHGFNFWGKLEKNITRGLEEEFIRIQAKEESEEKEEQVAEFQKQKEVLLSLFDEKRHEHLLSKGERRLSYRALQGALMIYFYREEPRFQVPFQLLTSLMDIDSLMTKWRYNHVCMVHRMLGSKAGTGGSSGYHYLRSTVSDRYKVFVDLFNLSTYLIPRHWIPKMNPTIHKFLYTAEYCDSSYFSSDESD

SMILES: N[C@H]1CN(C(=O)CCNS(=O)(=O)c2ccc(-c3c[nH]c4cc(F)ccc34)cc2)C[C@H]1F (single isomer, unassigned) [Example 172, (−)-N-(3-((3S.4R)-3-amino-4-fluoropyrrolidin-1-yl)-3-oxopropyl)-4-(6-fluoro-1H-indol-3-yl)benzenesulfonamide]
- IC50: 957 nM

SMILES: N[C@H]1CN(C(=O)CCNS(=O)(=O)c2ccc(-c3c[nH]c4cc(F)ccc34)cc2)C[C@H]1F (single isomer, unassigned) [Example 173]
- IC50: 919 nM

SMILES: C[S+]([O-])CCNS(=O)(=O)c1ccc(-c2c[nH]c3cc(F)ccc23)cc1 (single isomer, unassigned; (+)) [Example 160, (+)-4-(6-fluoro-1H-indol-3-yl)-N-(2-(methylsulfinyl)-ethyl) benzenesulfonamide]
- IC50: 171 nM

SMILES: C[S+]([O-])CCNS(=O)(=O)c1ccc(-c2c[nH]c3cc(F)ccc23)cc1 (single isomer, unassigned; (-)) [Example 159, (−)-4-(6-fluoro-1H-indol-3-yl)-N-(2-(methylsulfinyl)-ethyl)benzenesulfonamide]
- IC50: 220 nM

SMILES: N[C@H]1CN(S(=O)(=O)c2ccc(-c3c[nH]c4cc(F)ccc34)cc2)C[C@H]1F (stereo in doubt) [Example 81, (+)-(cis)-4-fluoro-1-{[4-(6-fluoro-1H-indol-3-yl)phenyl]-sulfonyl}pyrrolidin-3-amine]
- IC50: 230 nM

SMILES: C[C@@H]1CN(S(=O)(=O)c2ccc(-c3c[nH]c4cc(F)ccc34)cc2)C[C@H](C)N1 [Example 11, 3-(4-(((cis)-3,5-dimethylpiperazin-1-yl)sulfonyl)phenyl)-6-fluoro-1H-indole]
- IC50: 320 nM

SMILES: O=S(=O)(c1ccc(-c2c[nH]c3cc(F)ccc23)cc1)N1CCNC(CO)C1 (stereo not drawn) [Example 12, (4-((4-(6-fluoro-1H-indol-3-yl)phenyl)sulfonyl)piperazin-2-yl)-methanol]
- IC50: 140 nM

SMILES: O=S(=O)(c1ccc(-c2c[nH]c3cc(F)ccc23)cc1)N1CCNCC1CO (stereo not drawn) [Example 13, (1-((4-(6-fluoro-1H-indol-3-yl)phenyl)sulfonyl)piperazin-2-yl)methanol]
- IC50: 210 nM

SMILES: C[C@@H]1CN(S(=O)(=O)c2ccc(-c3c[nH]c4cc(F)ccc34)cc2)C[C@@H](C)N1 [Example 14, (3R,5R)-3-[4-(3,5-dimethyl-piperazine-1-sulfonyl)-phenyl]-6-fluoro-1H-indole]
- IC50: 190 nM

SMILES: C[C@H]1CN(S(=O)(=O)c2ccc(-c3c[nH]c4cc(F)ccc34)cc2)C[C@H](C)N1 [Example 15, 3-(4-(((3S,5S)-3,5-dimethylpiperazin-1-yl)sulfonyl)phenyl)-6-fluoro-1H-indole]
- IC50: 220 nM

SMILES: O=S(=O)(c1ccc(-c2c[nH]c3cc(F)ccc23)cc1)N1CCN[C@@H](CO)C1 [Example 17, (R)-(4-((4-(6-fluoro-1H-indol-3-yl)phenyl)sulfonyl)piperazin-2-yl)methanol]
- IC50: 200 nM

SMILES: CS(=O)(=O)N1CCN(S(=O)(=O)c2ccc(-c3c[nH]c4cc(F)ccc34)cc2)CC1 [Example 19, 6-fluoro-3-(4-((4-(methylsulfonyl)piperazin-1-yl)sulfonyl)phenyl)-1H-indole]
- IC50: 1000 nM

SMILES: O=S(=O)(c1ccc(-c2c[nH]c3ccccc23)cc1)N1CCNCC1 [Example 20, 3-(4-(piperazin-1-ylsulfonyl)phenyl)-1H-indole]
- IC50: 250 nM

SMILES: O=S(=O)(c1ccc(-c2c[nH]c3cc(F)ccc23)c(F)c1)N1CCNCC1 [Example 22, 6-fluoro-3-(2-fluoro-4-(piperazin-1-ylsulfonyl)-phenyl)-1H-indole]
- IC50: 600 nM

SMILES: O=S(=O)(c1cc(-c2c[nH]c3cc(F)ccc23)ccc1Cl)N1CCNCC1 [Example 23, 3-(4-chloro-3-(piperazin-1-ylsulfonyl)phenyl)-6-fluoro-1H-indole]
- IC50: 630 nM

SMILES: O=S(=O)(c1ccc(-c2c[nH]c3cc(F)ccc23)cc1C(F)(F)F)N1CCNCC1 [Example 24, 6-fluoro-3-(4-(piperazin-1-ylsulfonyl)-3-(trifluoromethyl)-phenyl)-1H-indole]
- IC50: 510 nM

SMILES: Cc1cc(S(=O)(=O)N2CCNCC2)ccc1-c1c[nH]c2cc(F)ccc12 [Example 25, 6-fluoro-3-(2-methyl-4-(piperazin-1-ylsulfonyl)-phenyl)-1H-indole]
- IC50: 1400 nM

SMILES: CN(CCC(N)=O)S(=O)(=O)c1ccc(-c2c[nH]c3cc(F)ccc23)cc1 [Example 27, 3-(4-(6-fluoro-1H-indol-3-yl)-N-methylphenylsulfonamido)-propanamide]
- IC50: 160 nM

SMILES: O=S(=O)(c1ccc(-c2c[nH]c3cc(F)ccc23)cc1F)N1CCNCC1 [Example 28, 6-fluoro-3-(3-fluoro-4-(piperazin-1-ylsulfonyl)-phenyl)-1H-indole]
- IC50: 220 nM

SMILES: COc1cc(-c2c[nH]c3cc(F)ccc23)ccc1S(=O)(=O)N1CCNCC1 [Example 29, 6-fluoro-3-(3-methoxy-4-(piperazin-1-ylsulfonyl)-phenyl)-1H-indole]
- IC50: 190 nM

SMILES: Cc1cc(-c2c[nH]c3cc(F)ccc23)cc(S(=O)(=O)NCCN)c1 [Example 30, N-(2-aminoethyl)-3-(6-fluoro-1H-indol-3-yl)-5-methyl-benzenesulfonamide]
- IC50: 3900 nM

SMILES: CS(=O)(=O)c1cccc(-c2c[nH]c3cc(F)ccc23)c1 [Example 31, 6-fluoro-3-(3-(methylsulfonyl)phenyl)-1H-indole]
- IC50: 740 nM

SMILES: COc1ccc(-c2c[nH]c3cc(F)ccc23)cc1S(=O)(=O)NCCN [Example 33]
- IC50: 910 nM

SMILES: N#Cc1cc(S(=O)(=O)N2CCNCC2)ccc1-c1c[nH]c2cc(F)ccc12 [Example 37, 2-(6-fluoro-1H-indol-3-yl)-5-(piperazin-1-ylsulfonyl)benzonitrile]
- IC50: 3700 nM

SMILES: NCCNS(=O)(=O)c1cc(Cl)cc(-c2c[nH]c3cc(F)ccc23)c1 [Example 38, N-(2-aminoethyl)-3-chloro-5-(6-fluoro-1H-indol-3-yl)-benzenesulfonamide]
- IC50: 2500 nM

SMILES: NCCNS(=O)(=O)c1cc(-c2c[nH]c3cc(F)ccc23)ccc1O [Example 39, N-(2-aminoethyl)-5-(6-fluoro-1H-indol-3-yl)-2-hydroxy-benzenesulfonamide]
- IC50: 2900 nM

SMILES: NC(=O)c1cc(-c2c[nH]c3cc(F)ccc23)ccc1S(=O)(=O)N1CCNCC1 [Example 41, 5-(6-fluoro-1H-indol-3-yl)-2-(piperazin-1-ylsulfonyl)benzamide]
- IC50: 990 nM

SMILES: CN1CCN(S(=O)(=O)c2ccc(-c3c[nH]c4cc(F)ccc34)cc2)CC1=O [Example 42, 4-((4-(6-fluoro-1H-indol-3-yl)phenyl)sulfonyl)-1-methylpiperazin-2-one]
- IC50: 260 nM

SMILES: NCCNS(=O)(=O)c1cc(-c2c[nH]c3cc(F)ccc23)ccc1F [Example 43, N-(2-aminoethyl)-2-fluoro-5-(6-fluoro-1H-indol-3-yl)-benzenesulfonamide]
- IC50: 410 nM

SMILES: NCCNS(=O)(=O)c1cc(F)cc(-c2c[nH]c3cc(F)ccc23)c1 [Example 44, N-(2-aminoethyl)-3-fluoro-5-(6-fluoro-1H-indol-3-yl)-benzenesulfonamide]
- IC50: 430 nM

SMILES: O=S(=O)(c1ccc(-c2c[nH]c3cc(F)ccc23)cc1Cl)N1CCNCC1 [Example 45, 3-(3-chloro-4-(piperazin-1-ylsulfonyl)phenyl)-6-fluoro-1H-indole]
- IC50: 230 nM

SMILES: O=S(=O)(NC1CCOCC1)c1ccc(-c2c[nH]c3cc(F)ccc23)cc1 [Example 46, 4-(6-fluoro-1H-indol-3-yl)-N-(tetrahydro-pyran-4-yl)-benzenesulfonamide]
- IC50: 220 nM

SMILES: CN(C)C(=O)n1cc(-c2ccc(S(=O)(=O)N3CCNCC3)cc2)c2ccc(F)cc21 [Example 47, 6-fluoro-N,N-dimethyl-3-(4-(piperazin-1-ylsulfonyl)phenyl)-1H-indole-1-carboxamide]
- IC50: 9600 nM

SMILES: O=c1[nH]nc(CCNS(=O)(=O)c2ccc(-c3c[nH]c4cc(F)ccc34)cc2)o1 [Example 48, 4-(6-fluoro-1H-indol-3-yl)-N-(2-(5-oxo-4,5-dihydro-1,3,4-oxadiazol-2-yl)ethyl)benzenesulfonamide]
- IC50: 440 nM

SMILES: CN(C)C(=O)CCNS(=O)(=O)c1ccc(-c2c[nH]c3cc(F)ccc23)cc1 [Example 49, 3-(4-(6-fluoro-1H-indol-3-yl)phenylsulfonamido)-N,N-dimethylpropanamide]
- IC50: 210 nM

SMILES: CCC(=O)n1cc(-c2ccc(S(=O)(=O)N3CCNCC3)cc2)c2ccc(F)cc21 [Example 51, 1-(6-fluoro-3-(4-(piperazin-1-ylsulfonyl)phenyl)-1H-indol-1-yl)-propan-1-one]
- IC50: 630 nM

SMILES: CC(C)CC(=O)n1cc(-c2ccc(S(=O)(=O)N3CCNCC3)cc2)c2ccc(F)cc21 [Example 52, 1-(6-fluoro-3-(4-(piperazin-1-ylsulfonyl)phenyl)-1H-indol-1-yl)-3-methylbutan-1-one]
- IC50: 1700 nM

SMILES: NC(=O)CCCNS(=O)(=O)c1ccc(-c2c[nH]c3cc(F)ccc23)cc1 [Example 53, 4-(4-(6-fluoro-1H-indol-3-yl)phenylsulfonamido)butanamide]
- IC50: 210 nM

SMILES: CN(CCCC(N)=O)S(=O)(=O)c1ccc(-c2c[nH]c3cc(F)ccc23)cc1 [Example 54, 4-(4-(6-fluoro-1H-indol-3-yl)-N-methylphenylsulfonamido)-butanamide]
- IC50: 250 nM

Source: patent US10544095B2 (Pfizer Inc., priority 2015, dated 2020)
